Where a SMILES comes first, the peptide text is derived from it. [ ]: non-standard residue; d: D form. The star is where a group is joined. Myristoyl = CCCCCCCCCCCCCC(=O)*; Orn = NCCC[C@H](N)C(=O)O
Legend:
MDA-MB-231 cells = format: cell-based, human; conditions: 50 μM peptide, 48 hours, n = 1
Excerpt: (§1) Non-adherent cells were removed during the washing steps.

[1] = system: CD44^hiCD24^lo CSCs in MDA-MB-231 cells; assay: FACS analysis of CD44^hiCD24^lo cancer stem cells in MDA-MB-231 cells treated with P1 analogues; format: cell-based, human; conditions: 50 μM peptide, 48 hours; for CD44^hiCD24^lo CSCs (%) / COI, Live Single CD44^hiCD24^lo CSCs (Cell Count): n = 1; for Average Inhibition of CSCs (%) / CD44^hiCD24^lo CSCs (%) Repeat 1 / CD44^hiCD24^lo CSCs (%) Repeat 2 / CD44^hiCD24^lo CSCs (%) Repeat 3: n = 3
Method: Analogues of P1 (Table 6) were designed and synthesized in accordance with the procedure of Example 5. The ability of these analogues to inhibit cancer stem cells was determined using FACS analysis on MDA-MB-231 cells, which constitutively contain approximately 90% CD44^hiCD24^lo cancer stem cells, treated with the peptides.
as §1
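For COI, Live Single Cells (Cell Count) in this document: live means Hoechst-negative events among single cells.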

SMILES	COI (Cell Count) (MDA-MB-231 cells)	COI, Live Single Cells (Cell Count) (MDA-MB-231 cells)	COI, Single (Cell Count) (MDA-MB-231 cells)	Total Cell Count (MDA-MB-231 cells)	Inhibition of CSCs (%) Repeat 1 [1]	Inhibition of CSCs (%) Repeat 2 [1]	Inhibition of CSCs (%) Repeat 3 [1]	CD44^hiCD24^lo CSCs (%) [1]	COI, Live Single CD44^hiCD24^lo CSCs (Cell Count) [1]	Average Inhibition of CSCs (%) [1]	CD44^hiCD24^lo CSCs (%) Repeat 1 [1]	CD44^hiCD24^lo CSCs (%) Repeat 2 [1]	CD44^hiCD24^lo CSCs (%) Repeat 3 [1]
CCCCCCCCCCCCCC(=O)N[C@@H](CC(C)C)C(=O)N[C@H](C(=O)N[C@@H](Cc1ccccc1)C(=O)N[C@H](C(=O)N[C@@H](Cc1ccccc1)C(=O)N[C@@H](CCCNC(=N)N)C(=O)N[C@@H](CC(C)C)C(=O)N[C@@H](CCCNC(=N)N)C(=O)N[C@@H](CCCNC(C)=O)C(=O)NCC(=O)N[C@@H](CCCNC(=N)N)C(=O)N[C@@H](CCSC)C(=O)N[C@@H](CCSC)C(=O)N[C@@H](CC(=O)O)C(=O)N[C@H](C(=O)N[C@@H](CCCCN)C(=O)N[C@@H](CCCCN)C(N)=O)C(C)C)[C@@H](C)CC)[C@@H](C)O [Peptide 2853826, Myristoyl-LTFIFRLROrn(Ac)GRMMDVKK-NH2] (Myristoyl-LTFIFRLR[Orn](Ac)GRMMDVKK-NH2)	554	160	433	3961	86.74%	80.33%	87.62%	3.13%	5	84.90%	11.88%	17.65%	11.11%
CCCCCCCCCCCCCC(=O)N[C@@H](CC(C)C)C(=O)N[C@H](C(=O)N[C@@H](CCC(=O)O)C(=O)N[C@H](C(=O)N[C@@H](Cc1ccccc1)C(=O)N[C@@H](CCCNC(=N)N)C(=O)N[C@@H](CC(C)C)C(=O)N[C@@H](CCCNC(=N)N)C(=O)N[C@@H](CCCCN)C(=O)NCC(=O)N[C@@H](CCCNC(=N)N)C(=O)N[C@@H](CCSC)C(=O)N[C@@H](CCSC)C(=O)N[C@@H](CC(=O)O)C(=O)N[C@H](C(=O)N[C@@H](CCCCN)C(=O)N[C@@H](CCCCN)C(N)=O)C(C)C)[C@@H](C)CC)[C@@H](C)O [Peptide 2853807, Myristoyl-LTEIFRLRKGRMMDVKK-NH2] (Myristoyl-LTEIFRLRKGRMMDVKK-NH2)	690	168	439	3558	84.07%	81.60%	86.81%	11.31%	19	84.16%	14.28%	16.51%	11.84%
CCCCCCCCCCCCCC(=O)N[C@@H](CC(C)C)C(=O)N[C@H](C(=O)N[C@@H](Cc1ccccc1)C(=O)N[C@H](C(=O)N[C@@H](Cc1ccccc1)C(=O)N[C@@H](CCCNC(=N)N)C(=O)N[C@@H](CC(C)C)C(=O)N[C@@H](CCCNC(=N)N)C(=O)N[C@@H](CCCCN)C(=O)NCC(=O)N[C@@H](CCCNC(=N)N)C(=O)N[C@@H](CCSC)C(=O)N[C@@H](CCSC)C(=O)N[C@@H](CC(=O)O)C(=O)N[C@H](C(=O)N[C@@H](CCCNC(=N)N)C(=O)N[C@@H](CCCCN)C(N)=O)C(C)C)[C@@H](C)CC)[C@@H](C)O [Peptide 2853840, Myristoyl-LTFIFRLRKGRMMDVRK-NH2] (Myristoyl-LTFIFRLRKGRMMDVRK-NH2)	709	308	487	3715	82.01%	81.08%	83.80%	18.83%	58	82.30%	16.13%	16.97%	14.54%
CCCCCCCCCCCCCC(=O)N[C@@H](CC(C)C)C(=O)N[C@H](C(=O)N[C@@H](Cc1ccccc1)C(=O)N[C@H](C(=O)N[C@@H](CC(C)C)C(=O)N[C@@H](CCCNC(=N)N)C(=O)N[C@@H](CC(C)C)C(=O)N[C@@H](CCCNC(=N)N)C(=O)N[C@@H](CCCCN)C(=O)NCC(=O)N[C@@H](CCCNC(=N)N)C(=O)N[C@@H](CCSC)C(=O)N[C@@H](CCSC)C(=O)N[C@@H](CC(=O)O)C(=O)N[C@H](C(=O)N[C@@H](CCCCN)C(=O)N[C@@H](CCCCN)C(N)=O)C(C)C)[C@@H](C)CC)[C@@H](C)O [Peptide 2853816, Myristoyl-LTFILRLRKGRMMDVKK-NH2] (Myristoyl-LTFILRLRKGRMMDVKK-NH2)	160	96	130	1747	69.57%	68.04%	65.42%	12.50%	12	67.68%	27.27%	28.67%	31.03%
CCCCCCCCCCCCCC(=O)N[C@@H](CCCCN)C(=O)N[C@H](C(=O)N[C@@H](Cc1ccccc1)C(=O)N[C@H](C(=O)N[C@@H](Cc1ccccc1)C(=O)N[C@@H](CCCNC(=N)N)C(=O)N[C@@H](CC(C)C)C(=O)N[C@@H](CCCNC(=N)N)C(=O)N[C@@H](CCCCN)C(=O)NCC(=O)N[C@@H](CCCNC(=N)N)C(=O)N[C@@H](CCSC)C(=O)N[C@@H](CCSC)C(=O)N[C@@H](CC(=O)O)C(=O)N[C@H](C(=O)N[C@@H](CCCCN)C(=O)N[C@@H](CCCCN)C(N)=O)C(C)C)[C@@H](C)CC)[C@@H](C)O [Peptide 2853803, Myristoyl-KTFIFRLRKGRMMDVKK-NH2] (Myristoyl-KTFIFRLRKGRMMDVKK-NH2)	741	666	702	1115	27.90%	27.33%	38.43%	60.36%	402	31.22%	64.62%	65.20%	55.25%
CCCCCCCCCCCCCC(=O)N[C@H](C(=O)N[C@@H](Cc1ccccc1)C(=O)N[C@H](C(=O)N[C@@H](Cc1ccccc1)C(=O)N[C@@H](CCCNC(=N)N)C(=O)N[C@@H](CC(C)C)C(=O)N[C@@H](CCCNC(=N)N)C(=O)N[C@@H](CCCCN)C(=O)N[C@@H](C)C(=O)N[C@@H](CCCNC(=N)N)C(=O)N[C@@H](CCSC)C(=O)N[C@@H](CCSC)C(=O)N[C@@H](CC(=O)O)C(=O)N[C@H](C(=O)N[C@@H](CCCCN)C(=O)N[C@@H](CCCCN)C(N)=O)C(C)C)[C@@H](C)CC)[C@@H](C)O [Peptide 2815310, Myristoyl-TFIFRLRKARMMDVKK-NH2] (Myristoyl-TFIFRLRKARMMDVKK-NH2)	18	7	16	8883	38.81%	39.40%	41.35%	57.14%	4	39.85%	54.84%	54.37%	52.63%
CCCCCCCCCCCCCC(=O)N[C@H](C(=O)N[C@@H](C)C(=O)N[C@H](C(=O)N[C@@H](Cc1ccccc1)C(=O)N[C@@H](CCCNC(=N)N)C(=O)N[C@@H](CC(C)C)C(=O)N[C@@H](CCCNC(=N)N)C(=O)N[C@@H](CCCCN)C(=O)NCC(=O)N[C@@H](CCCNC(=N)N)C(=O)N[C@@H](CCSC)C(=O)N[C@@H](CCSC)C(=O)N[C@@H](CC(=O)O)C(=O)N[C@H](C(=O)N[C@@H](CCCCN)C(=O)N[C@@H](CCCCN)C(N)=O)C(C)C)[C@@H](C)CC)[C@@H](C)O [Peptide 2815303, Myristoyl-TAIFRLRKGRMMDVKK-NH2] (Myristoyl-TAIFRLRKGRMMDVKK-NH2)	18	8	17	10195	76.31%	81.14%	80.95%	25.00%	2	79.47%	21.23%	16.92%	17.09%
CCCCCCCCCCCCCC(=O)N[C@@H](CC(C)C)C(=O)N[C@H](C(=O)N[C@@H](Cc1ccccc1)C(=O)N[C@H](C(=O)N[C@@H](Cc1ccccc1)C(=O)N[C@@H](CCCNC(=N)N)C(=O)N[C@@H](CC(C)C)C(=O)N[C@@H](CCCNC(=N)N)C(=O)N[C@@H](CCCCN)C(=O)NCC(=O)N[C@@H](CCCNC(=N)N)C(=O)N[C@@H](CCSC)C(=O)N[C@@H](CCSC)C(=O)N[C@@H](CC(=O)O)C(=O)N[C@H](C(=O)N[C@@H](CCCCN)C(=O)N[C@@H](CCCNC(=N)N)C(N)=O)C(C)C)[C@@H](C)CC)[C@@H](C)O [Peptide 2853844, Myristoyl-LTFIFRLRKGRMMDVKR-NH2] (Myristoyl-LTFIFRLRKGRMMDVKR-NH2)	147	66	101	2094	80.13%	89.73%	78.08%	10.61%	7	82.65%	17.81%	9.21%	19.67%
